19 compounds from patent US9067898B1, “Isothiazole derivatives as GPR120 agonists for the treatment of type II diabetes” (Janssen Pharmaceutica NV, priority 2014, dated 2015) can be followed below.

One may read the EC50 as the midpoint of the concentration-response curve.

Assay [1] has as its target T1, short form of the GPR120 receptor (GPR120S) (Homo sapiens, UniProt Q5NUL3).
T1 construct: host or cells: PathHunter CHO-K1 GPR120S β-Arrestin Cell Line
The assay can be described thus: Human GPR120 DiscoveRx PathHunter Beta-Arrestin assay, Procedure β-arrestin B. In kind it is cell-based. The following applies: PathHunter CHO-K1 GPR120S β-Arrestin cell line, 5000 cells/well, read-out: hGPR120 β-arrestin B EC50. From the text: The binding of an agonist (medium/long chain fatty acids or small molecule agonists) to the G-protein-coupled receptor GPR120 activates phospholipase C, leading to release of intracellular Ca^+2 through the generation of inositol 1,4,5-trisphosphate (InsP3 or IP3). GPR120 activation can also trigger intracellular signaling via recruitment of Beta-Arrestin. In the present method, agonist-induced activation of the human GPR120 receptor is monitored through the use of PathHunter CHO-K1 GPR120 Beta-Arrestin Cell Line engineered by DiscoveRx, as detailed below. The cell lines are designed to co-express both the ProLink/Enzyme Donor (PK)-tagged GPCR and the Enzyme […] (EA)-tagged Beta-Arrestin fusion proteins. Upon GPR120 receptor stimulation/activation, the EA-tagged Beta-Arrestin portion is translocated to the tagged receptor, where the two enzyme fragments are brought within close proximity. Under these conditions, these fragments can interact and form an active Beta-gal enzyme complex through Enzyme Fragment Complementation (EFC). This active Beta-gal complex can enzymatically hydrolyse the substrate to produce a detectable light signal; therefore, activation as a function of agonist concentration can be expressed as an EC50 value to determine relative compound activities. This in vitro assay therefore serves to assess compound agonist activity of the GPR120. Procedure β-Arrestin A: In Procedure β-arrestin A, the cell used were PathHunter CHO-K1 GPR120 β-Arrestin Cell Line, expressing the long form of human GPR120 (Genbank accession number NM 181745), with 3000 cells per well. Procedure β-Arrestin B: In Procedure 3-arrestin B the cells used were PathHunter CHO-K1 GPR120S β-Arrestin Cell Line, expressing the short form of the GPR120 receptor (Accession #NM_181745), with 5000 cells/well. Assay Procedure:
The selected CHO-K1 GPR120 β-Arrestin cells were cultured in Ham's F12 media supplemented with 10% fetal bovine serum (FBS), 1% Glutamine, lx p/s, 800 μg/mL G418 and 300 μg/mL Hygromycin B (for selection). Cell stocks were maintained and grown in a sub-confluent state using standard cell culture procedures. The day before the experiment, the cells were harvested with non-enzymatic cell dissociation buffer and re-suspended in complete growth media at the desired concentration. A Corning 384-plate was then seeded with the proper number of cells in a volume of 25 μL, per well. The seeded plates were incubated overnight at 37° C.
On the day of the experiment, the Assay Buffer containing (a) HBSS with Ca^++ and Mg^++, (b) 20 mM HEPES, and (c) 0.1% BSA stabilizer (pH 7.4) was prepared. The growth medium was gently removed from the cell plates and 20 μL of Assay Buffer added to each well. The plate was then incubated at 37° C. for 60 min. Test compounds were serially diluted in Assay Buffer to desired concentrations (more particularly to one or more of the following μM concentrations: 25, 12.5, 6.25, 3.125, 1.5625, 0.78125, 0.390625, 0.1953125, 0.09765625, 0.048828125, 0.024414063, 0.012207031). Five μL of compound dilution was then added to each well and the plate incubated at 37° C. for 90 min. The detection reagents were prepared according to the manufacture's instruction. Twelve μL of the detection reagents were added to each well and the plate incubated at room temperature for 60 min.
The plates were read on an EnVision instrument, using Protocol name: Luminescence, Plate type: 384 Costar, Measurement height: 3 mm, Measurement time: 1 s, Aperture: 384 Plate aperture. The % activity relative to the positive control was calculated using the following equation:
The % Activity values were plotted versus the concentration of test compound and fitted to a sigmoidal dose-response curve with a Hill slope=1 (fixed value) using nonlinear regression with GraphPad Prism 5.0 to calculate the EC50 values. […]

The target of assay [2] is T2, Human GPR120 short form (Homo sapiens, UniProt Q5NUL3).
T2 construct: expressed in transfected cells
T2 sequence (Q5NUL3 1-361): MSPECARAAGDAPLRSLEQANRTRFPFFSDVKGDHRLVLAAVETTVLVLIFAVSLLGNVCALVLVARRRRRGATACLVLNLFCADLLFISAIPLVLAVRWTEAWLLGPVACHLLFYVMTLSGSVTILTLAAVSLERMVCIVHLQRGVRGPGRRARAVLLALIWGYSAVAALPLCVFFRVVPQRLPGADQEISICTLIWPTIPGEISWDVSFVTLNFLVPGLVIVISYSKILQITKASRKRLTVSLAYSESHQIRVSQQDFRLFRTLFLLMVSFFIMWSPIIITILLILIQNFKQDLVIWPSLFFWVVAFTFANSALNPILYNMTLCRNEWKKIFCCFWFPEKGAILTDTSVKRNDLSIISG
Nature of the assay: Human GPR120 calcium flux assay (FLIPR), Procedure Calcium A. In kind it is cell-based. Conditions: HEK-293 cells expressing human GPR120 short form, 2500 cells/well; read-out: GPR120 Ca2+ Assay A EC50. Put shortly:
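HEK293 cells stably expressing the short isoform (NM_001195755.1), 2500/well, starved 1 h, then loaded with Fluo-4 NW plus probenecid (30 min 37 °C, 15 min RT). Compound solutions 0.012–100 μM, 0.2% DMSO final; FLIPR read 300 s after addition. EC50 from Fmax−Fmin fitted to variable-slope sigmoid (Hill <2).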
For orientation: Calcium flux is commonly read through the fluorescence of an indicator in the cells.

Each structure is given as a SMILES string.

T1 sequence (P32121 whole entry partner, one chain of several): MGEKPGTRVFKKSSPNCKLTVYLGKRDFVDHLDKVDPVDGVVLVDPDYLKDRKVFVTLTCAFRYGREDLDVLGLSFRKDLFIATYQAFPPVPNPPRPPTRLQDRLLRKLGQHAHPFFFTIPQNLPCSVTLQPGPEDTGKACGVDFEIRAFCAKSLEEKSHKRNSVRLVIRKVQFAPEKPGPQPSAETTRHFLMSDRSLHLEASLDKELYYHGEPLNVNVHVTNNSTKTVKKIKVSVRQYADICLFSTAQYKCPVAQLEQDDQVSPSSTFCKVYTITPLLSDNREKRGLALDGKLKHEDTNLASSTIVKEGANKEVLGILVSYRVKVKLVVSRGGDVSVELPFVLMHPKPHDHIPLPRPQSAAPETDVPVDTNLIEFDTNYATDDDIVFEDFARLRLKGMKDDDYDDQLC

As to `Cc1c(CCC(=O)O)ccc(OCc2c(C3CC(F)(F)C3)nsc2C(F)(F)F)c1C` [Cpd 137, 3-(4-[[3-(3,3-difluorocyclobutyl)-5-(trifluoromethyl)-1,2-thiazol-4-yl]methoxy]-2,3-dimethylphenyl) propanoic acid], the EC50 in assay [1] amounted to 413 nM; in assay [2], 137 nM.

For the compound `Cc1c(CCC(=O)O)ccc(OCc2c(-c3ccc(F)c(F)c3)nsc2C(F)(F)F)c1C` [Cpd 143, 3-(4-((3-(3,4-difluorophenyl)-5-(trifluoromethyl)isothiazol-4-yl)methoxy)-2,3-dimethylphenyl)propanoic acid], the values for the EC50 in assay [1] and in assay [2] were 374 nM and 156 nM, respectively.

Consider `O=C(O)CCc1cc(F)c(OCc2c(-c3ccccc3)nsc2C(F)(F)F)c(F)c1` [Cpd 145, 3-(3,5-difluoro-4-((3-phenyl-5-(trifluoromethyl)isothiazol-4-yl)methoxy)phenyl)propanoic acid], for which the EC50 stood at 132 nM in assay [1] and 160 nM in assay [2].

As for `O=C(O)CCc1cc(F)c(OCc2c(C3CC(F)(F)C3)nsc2C(F)(F)F)c(F)c1` [Cpd 147, 3-(4-[[3-(3,3-difluorocyclobutyl)-5-(trifluoromethyl)-1,2-thiazol-4-yl]methoxy]-3,5-difluorophenyl) propanoic acid], the EC50 stood at 390 nM in assay [1] and 165 nM in assay [2].

On to `COc1ccc(-c2nsc(C(F)(F)F)c2COc2c(F)cc(CCC(=O)O)cc2F)c(F)c1` [Cpd 151, 3-(3,5-difluoro-4-[[3-(2-fluoro-4-methoxyphenyl)-5-(trifluoromethyl)-1,2-thiazol-4-yl]methoxy]phenyl)propanoic acid], for which the results for the EC50 in assay [1] and in assay [2] were 85 nM and 169 nM, respectively.

As to `Cc1ccc(-c2snc(C(F)(F)F)c2COc2ccc(CCC(=O)O)c(C)c2C)c(F)c1` [Cpd 155, 3-(4-[[5-(2-fluoro-4-methylphenyl)-3-(trifluoromethyl)-1,2-thiazol-4-yl]methoxy]-2,3-dimethylphenyl)propanoic acid], the results for the EC50 in assay [1] and in assay [2] were 719 nM and 182 nM, respectively.

Turning to `O=C(O)CCc1ccc(OCc2c(C(F)(F)F)nsc2-c2ccc(Cl)cc2)cc1OC(F)(F)F` [Cpd 159, 3-(4-[[5-(4-chlorophenyl)-3-(trifluoromethyl)-1,2-thiazol-4-yl]methoxy]-2-(trifluoromethoxy)phenyl) propanoic acid], the EC50 in assay [1] amounted to 415 nM; in assay [2], 198 nM.

`O=C(O)CCc1cc(F)c(OCc2c(C3CCC(F)(F)C3)nsc2C(F)(F)F)c(F)c1` (centres unmarked) [Cpd 164, 3-(4-[[3-(3,3-difluorocyclopentyl)-5-(trifluoromethyl)-1,2-thiazol-4-yl]methoxy]-3,5-difluorophenyl)propanoic acid]: the EC50 in assay [1] stood at 427 nM; in assay [2], 210 nM.

Consider `CC(Cc1ccc(OCc2c(-c3ccc(Cl)c(F)c3)nsc2C(F)(F)F)cc1)C(=O)O` (centres unmarked) [Cpd 165, 3-(4-((3-(4-chloro-3-fluorophenyl)-5-(trifluoromethyl)isothiazol-4-yl)methoxy)phenyl)-2-methylpropanoic acid], for which the EC50 in assay [1] worked out at 435 nM; in assay [2], 215 nM.

Turning to `COc1ccc(-c2nsc(C(F)(F)F)c2COc2ccc(CCC(=O)O)c(C)c2C)cn1` [Cpd 167, 3-(4-[[3-(6-methoxypyridin-3-yl)-5-(trifluoromethyl)-1,2-thiazol-4-yl]methoxy]-2,3-dimethylphenyl)propanoic acid], the EC50 in assay [1] amounted to 352 nM; in assay [2], 222 nM.

For `Cc1ccc(-c2nsc(C(F)(F)F)c2COc2ccc(CCC(=O)O)c(C(F)(F)F)c2)c(F)c1` [Cpd 171, 3-(4-[[3-(2-fluoro-4-methylphenyl)-5-(trifluoromethyl)-1,2-thiazol-4-yl]methoxy]-2-(trifluoromethyl)phenyl)propanoic acid], the EC50 stood at 1210 nM in assay [1] and 226 nM in assay [2].

On to `COc1ccc(-c2nsc(C(F)(F)F)c2COc2ccc(CCC(=O)O)c(C)c2C)cc1F` [Cpd 172, 3-(4-[[3-(3-fluoro-4-methoxyphenyl)-5-(trifluoromethyl)-1,2-thiazol-4-yl]methoxy]-2,3-dimethylphenyl)propanoic acid], for which the EC50 came to 147 nM in assay [1] and 229 nM in assay [2].

For the compound `O=C(O)CCc1ccc(OCc2c(-c3ccc(Cl)cc3)nsc2C(F)(F)F)cc1C(F)(F)F` [Cpd 173, 3-(4-[[3-(4-chlorophenyl)-5-(trifluoromethyl)-4-yl]methoxy]-2-(trifluoromethyl)phenyl)propanoic acid], the values for the EC50 in assay [1] and in assay [2] were 421 nM and 236 nM, respectively.

For the compound `O=C(O)CCc1cc(F)c(OCc2c(-c3ccc(F)cc3F)nsc2C(F)(F)F)c(F)c1` [Cpd 174, 3-(4-((3-(2,4-difluorophenyl)-5-(trifluoromethyl)isothiazol-4-yl)methoxy)-3,5-difluorophenyl)propanoic acid], the EC50 in assay [1] is 85 nM; in assay [2], 246 nM.

For the compound `Cc1ccc(-c2snc(Cl)c2COc2ccc(CCC(=O)O)c(C(F)(F)F)c2)c(F)c1` [Cpd 175, 3-(4-[[3-chloro-5-(2-fluoro-4-methylphenyl)-1,2-thiazol-4-yl]methoxy]-2-(trifluoromethyl)phenyl)propanoic acid], the results for the EC50 in assay [1] and in assay [2] were 230 nM and 247 nM, respectively.

For the compound `Cc1ccc(-c2snc(C(F)(F)F)c2COc2ccc(CCC(=O)O)c(C)c2C)c(C)c1` [Cpd 184, 3-(4-[[5-(2,4-dimethylphenyl)-3-(trifluoromethyl)-1,2-thiazol-4-yl]methoxy]-2,3-dimethylphenyl) propanoic acid], the results for the EC50 in assay [1] and in assay [2] were 997 nM and 300 nM, respectively.

As to `CCc1ccc(-c2nsc(C(F)(F)F)c2COc2c(F)cc(CC(C)C(=O)O)cc2F)c(F)c1` (centres unmarked) [Cpd 188, 3-(4-((3-(4-ethyl-2-fluorophenyl)-5-(trifluoromethyl)isothiazol-4-yl)methoxy)-3,5-difluorophenyl)-2-methylpropanoic acid], the 50% effective concentration (EC50) in assay [1] turned out to be 153 nM; in assay [2] it was 306 nM.

Regarding `CCc1ccc(-c2nsc(C(F)(F)F)c2COc2c(F)cc(CCC(=O)O)cc2F)cc1F` [Cpd 194, 3-(4-((3-(4-ethyl-3-fluorophenyl)-5-(trifluoromethyl)isothiazol-4-yl)methoxy)-3,5-difluorophenyl)propanoic acid], the EC50 is 40 nM in assay [1] and 362 nM in assay [2].

Turning to `CC(Cc1ccc(OCc2c(-c3ccc(Cl)cc3)nsc2C(F)(F)F)cc1)C(=O)O` (centres unmarked) [Cpd 195, 3-(4-[[3-(4-chlorophenyl)-5-(trifluoromethyl)-1,2-thiazol-4-yl]methoxy]phenyl)-2-methylpropanoic acid], the values for the EC50 in assay [1] and in assay [2] were 307 nM and 366 nM, respectively.
